Results published in patent US6265445A, “Antiarrhythmic compounds” (priority 1997, dated 2001).
Counter-ions that a name gives are not always drawn. Like-named read-outs stand apart in the source and are kept apart here.

Columns and labels:
[1] = test system: arrhythmias following coronary artery occlusion in conscious rats; assay: Occlusion arrhythmia following acute coronary artery ligation in conscious rats; assay type: in vivo, male rats; details: for Occurrence of arrhythmias: Brady / Occurrence of arrhythmias: Free (no arrhythmia was observed) / Occurrence of arrhythmias: Other / Occurrence of arrhythmias: VF / Occurrence of arrhythmias: VT: first 15 minutes; for Arrhythmia Score: score system from 0 to 6
From the text: The method used is essentially in agreement with the method of Lepran et al. [J. Pharmacol. Methods 9, pp. 219-230 (1983)].
During a previous operation, male rats weighing 340 to 360 g each were fitted with a loose surgical thread loop around the left descending coronary vessel, at about 2 mm from its origin. The ends of the loop thread were led out from the chest under the skin, then the surgical wound was closed. After complete recovery from this previous operation (7 to 8 days) acute myocardial ischaemia was induced by contracting the loose ligation in the conscious, freely moving animals. ECG was continuously registered by using bipolar chest electrodes before the ligation of the coronary artery and during the first 15 minutes of ischaemia. The ratio of survivals was determined and the developed arrhythmias were evaluated according to the Lambeth Convention [Walker et al.: Cardiovasc. Res. 22, 447-455 (1988)]. For evaluation of the arrhythmic episodes a score system was also employed by considering the severity of episodes on the basis of a score system from 0 to 6. Both d-sotalol and the substance of Example 15, respectively, were suspended in 1% methylcellulose and administered orally through a gastric sound at 1 hour before the compression of the coronary vessel. The control animals received a treatment with the same volume, i.e. 5 ml/kg of vehicle.

[2] = test system: occlusion and reperfusion arrhythmias in anaesthetized dogs; assay: Occlusion and reperfusion arrhythmias following acute coronary ligation in anaesthetized dogs; assay type: in vivo, mongrel dogs; details: 3 mg/kg i.v.
Method: The method used is essentially in agreement with the method of Vegh et al. [Basic Res. Cardiol. 82, 159-171 (1987)].
Mongrel dogs of both sexes weighing 10 to 20 kg each were anaesthetized by a mixture of chloralose (60 mg/kg) and urethane (200 mg/kg) and the animals were maintained on artificial respiration. After opening the chest, the ramus descendens anterior (LAD) branch of the left coronary artery of heart was prepared from the first main collateral branch and a loose loop from surgical thread was placed around it. During our experiments, the blood pressure of the animal was measured by using a cannule introduced to the left femoral artery and even the standard ECG parameters by using needle electrodes were continuously registered. The arrhythmias were induced by the occlusion for 25 minutes of a loop placed round the LAD. The survival after lethal arrhythmias and frequency of the arrhythmias were registered. The 28 dogs used in the experiments were divided into three groups. The compound of Example 15 was administered in a dose of 1 mg/kg to 8 animals; d-sotalol was given in a dose of 3 mg/kg to 10 animals by a single intravenous injection 10 minutes before compression of the coronary vessel. The control dogs (10 animals) received 5 ml of physiological saline solution in the same manner as the treated animals.
By using this method it can be stated whether the substance investigated would be effective for protection against arrhythmias following the ligation of the coronary artery.

[3] = test system: isolated right ventricular trabecule of dog heart; assay: Extracellular electrophysiological measurements: impulse conduction time and effective refractory period; parameters: species or system mongrel dogs; details: for activation at 30 µM / activation at 10 µM: Canis lupus familiaris
Method: Right ventricular trabecules were prepared from the heart of mongrel dogs (weighing 5 to 10 kg each). The surviving heart pieces were placed into an organ bath (37° C.) containing modified Tyrode's nutrient medium and excited by point stimulation with a basal frequency of 1 Hz. Extracellular bipolar platinum electrodes were placed on the surface of the preparations, by means of which the propagation of the superficial potentials were registered; thus, the determination of the time of impulse conduction or the rate of impulse conduction, respectively, and the effective refractory period (ERP) became possible. During our experiments,the frequency of stimulation was temporarily varied from 0.5 Hz up to 3 Hz. The tested compounds were directly added to the organ bath after dilution of the stock solution according to the desired final concentration.

[4] = treatment group; cited from earlier work
[5] = test system: right ventricular papillary muscle of dogs; assay: Intracellular microelectrode technique: action potential parameters, ventricular papillary muscle; parameters: species or system mongrel dogs; details: for Trecovery (recovery time constant of Vmax): Gy: kinetics of rapid restoration
Method: The method used is essentially in agreement with the method of Papp et al. [J. Cardiovascular Pharmacol. Ther. 1, 287-296 (1996)].
Right ventricular papillary muscle and Purkinje's fibres were prepared from the hearts of mongrel dogs (weighing 5 to 10 kg each). The preparations were placed into an organ bath (37° C.) containing modified Tyrode's nutrient medium. The preparations were excited by a basal frequency of 1 Hz. During the experiments, the frequency of stimulation was varied under broad limits by a computer-guided stimulator. The intracellular action potentials were registered by using glass capillary microelectrodes filled with 3 N potassium chloride solution (standard intracellular microelectrode techniques). The resting potential (RP), the amplitude of the action potential (APA) as well as the duration of the action potential (APD) were measured by using an IBM 386 compatible computer by means of an own-developed software. The compounds under test were directly added into the organ bath after dilution of the stock solutions according to the final concentrations desired. The effects of the compounds were observed after an incubation time of 30 to 40 minutes.

CC(C)NCC(O)c1ccc(NS(C)(=O)=O)cc1 (single isomer, unassigned) [d-Sotalol, d-N-[4-[1-hydroxy-2-(1-methylethylamino)ethyl]phenyl]methanesulfonamide hydrochloride]
antiarrhythmic effect (in words) ([1]; oral administration): proved to be inactive
Survival 15 minutes ([1]; p.o. 25 mg/kg): 2/29
Survival 16 hours ([1]; p.o. 25 mg/kg): 2/29
Occurrence of arrhythmias: Brady ([1]; p.o. 25 mg/kg): 2/29
Occurrence of arrhythmias: Free (no arrhythmia was observed) ([1]; p.o. 25 mg/kg): 0/0
Occurrence of arrhythmias: Other ([1]; p.o. 25 mg/kg): 3/43
Occurrence of arrhythmias: VF ([1]; p.o. 25 mg/kg): 7/100
Occurrence of arrhythmias: VT ([1]; p.o. 25 mg/kg): 7/100
Arrhythmia Score ([1]; p.o. 25 mg/kg): 5.71 ± 0.18
Survival 15 minutes ([1]; p.o. 50 mg/kg): 1/10
Survival 16 hours ([1]; p.o. 50 mg/kg): 0/0
Occurrence of arrhythmias: Brady ([1]; p.o. 50 mg/kg): 1/10
Occurrence of arrhythmias: Free (no arrhythmia was observed) ([1]; p.o. 50 mg/kg): 0/0
Occurrence of arrhythmias: Other ([1]; p.o. 50 mg/kg): 4/40
Occurrence of arrhythmias: VF ([1]; p.o. 50 mg/kg): 1/100
Occurrence of arrhythmias: VT ([1]; p.o. 50 mg/kg): 10/100
Arrhythmia Score ([1]; p.o. 50 mg/kg): 5.90 ± 0.10
Complete survival, animals [2]: 5/10
Complete survival, percent [2]: 50%
ES (extrasystole) ([2]; occlusion): 128 ± 14
VF (ventricular fibrillation), animals ([2]; occlusion): 3/10
VF (ventricular fibrillation), percent ([2]; occlusion): 30%
VT (ventricular tachycardia), animals ([2]; occlusion): 5/10
VT (ventricular tachycardia), percent ([2]; occlusion): 50%
VF (ventricular fibrillation), animals ([2]; reperfusion): 2/7
VF (ventricular fibrillation), percent ([2]; reperfusion): 29%
activation at 30 µM ([3]; 1 Hz, read-out: Prolongation (%) of ERP): 12.4%
activation at 30 µM ([3]; 1 Hz, read-out: Prolongation (%) of impulse conduction time): -4.5 ± 5.1%
activation at 30 µM ([3]; 3 Hz, read-out: Prolongation (%) of ERP): 7.1%
activation at 30 µM ([3]; 3 Hz, read-out: Prolongation (%) of impulse conduction time): -3.7 ± 4.7%
effect on effective refractory period (in words) ([3]; concentrations of Table 1): showed a considerable effect only on the ERP
mortality in clinical trials (in words) [4]: increase in mortality ascribable to the proarrhythmic effect

Cc1cccc(C)c1OCC(C)NCCc1ccc(NS(C)(=O)=O)cc1.Cl (stereo not shown) [Example 22, N-[4-[2-[N-[2-(2,6-Dimethylphenoxy)-1-methylethyl]amino]-ethyl]phenyl]methanesulfonamide hydrochloride]
activation at 10 µM ([3]; 10 μM, 1 Hz, read-out: Prolongation (%) of ERP): 12.3%
activation at 10 µM ([3]; 10 μM, 1 Hz, read-out: Prolongation (%) of impulse conduction time): 22.6%
activation at 10 µM ([3]; 10 μM, 3 Hz, read-out: Prolongation (%) of ERP): 18.1%
activation at 10 µM ([3]; 10 μM, 3 Hz, read-out: Prolongation (%) of impulse conduction time): 28.3%
APA (amplitude of the action potential) ([5]; 5 μM): 100 mV
APD50 (time of 50% repolarization) ([5]; 5 μM): 215 ms
APD90 (time of 90% repolarization) ([5]; 5 μM): 260 ms
RP (resting potential) ([5]; 5 μM): -80 mV
Recovery Ampl ([5]; 5 μM): 136.3 V/s
Recovery Ampl/Plateau ([5]; 5 μM): 0.58
Recovery Plateau ([5]; 5 μM): 232.8 V/s
Vmax (maximum rate of depolarization) ([5]; 5 μM): 159 V/s
Trecovery (recovery time constant of Vmax) ([5]; 5 μM): 337.8 ms
effect on duration of the action potential (in words) ([5]; concentrations of Table 2): simultaneous prolongation of duration of the action potential (APD)
effect on Vmax (in words) ([5]; rapid recovery kinetics, concentrations of Table 2): mexiletine-like inhibition of Vmax

Cc1cccc(C)c1OCC(C)N.Cl (stereo not shown) [Mexiletine, 2-(2,6-dimethylphenoxy)-1-methylethylamine hydrochloride, reference compound]
activation at 10 µM ([3]; read-out: Prolongation (%) of ERP, 10 μM, 1 Hz): -1.9 ± 1.7%
activation at 10 µM ([3]; read-out: Prolongation (%) of ERP, 10 μM, 3 Hz): 8.9%
activation at 10 µM ([3]; read-out: Prolongation (%) of impulse conduction time, 10 μM, 1 Hz): 3.9%
activation at 10 µM ([3]; read-out: Prolongation (%) of impulse conduction time, 10 μM, 3 Hz): 18.8%
effect on impulse conduction (in words) ([3]; concentrations of Table 1): exerted an effect mainly on impulse conduction
APA (amplitude of the action potential) ([5]; 10 μM): 115 mV
APD50 (time of 50% repolarization) ([5]; 10 μM): 244 ms
APD90 (time of 90% repolarization) ([5]; 10 μM): 270 ms
RP (resting potential) ([5]; 10 μM): -92 mV
Recovery Ampl ([5]; 10 μM): 84.0 V/s
Recovery Ampl/Plateau ([5]; 10 μM): 0.45
Recovery Plateau ([5]; 10 μM): 186.5 V/s
Vmax (maximum rate of depolarization) ([5]; 10 μM): 193 V/s
Trecovery (recovery time constant of Vmax) ([5]; 10 μM): 214.1 ms
